Laboratory results published in the supplement of paper PMC10307832.

Key:
Assay in all cases: relative viability (nuclei count vs DMSO), 5 days (fraction); higher = more cells survive
[1] = compound: OCc1c[nH]c2ccccc12 [Indole-3-carbinol] + CS(=O)(=O)N1CCN(Cc2cc3nc(-c4cccc5[nH]ncc45)nc(N4CCOCC4)c3s2)CC1 [Pictilisib] (partner 1 µM)
How it was run: (§1)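 The day after seeding in 1536-well plates, lung cancer cell lines were treated by pin tool with a single drug, or with a fixed anchor-drug dose together with five library-drug doses (not always all listed) in √10 steps. After 5 days, a combined fix-and-stain solution (final 0.05% Triton X-100, 1% formaldehyde, 1 ug/ml Hoechst) was added. Nuclei counted on 4× images gave relative viability as treated counts over vehicle counts, reported as the median of duplicate plates.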

[2] = compound: OCc1c[nH]c2ccccc12 [Indole-3-carbinol] + CC(=O)Nc1cccc(-n2c(=O)n(C3CC3)c(=O)c3c(Nc4ccc(I)cc4F)n(C)c(=O)c(C)c32)c1 [Trametinib] (partner 0.02 µM)
How it was run: as §1

[3] = compound: OCc1c[nH]c2ccccc12 [Indole-3-carbinol] + CCNC(=O)c1noc(-c2cc(C(C)C)c(O)cc2O)c1-c1ccc(CN2CCOCC2)cc1 [Luminespib] (partner 0.01 µM)
How it was run: as §1

[4] = compound: OCc1c[nH]c2ccccc12 [Indole-3-carbinol] + CC(=O)c1c(C)c2cnc(Nc3ccc(N4CCNCC4)cn3)nc2n(C2CCCC2)c1=O [Palbociclib] (partner 0.5 µM)
How it was run: as §1

[5] = compound: OCc1c[nH]c2ccccc12 [Indole-3-carbinol] + CS(=O)(=O)CCNCc1ccc(-c2ccc3ncnc(Nc4ccc(OCc5cccc(F)c5)c(Cl)c4)c3c2)o1 [Lapatinib] (partner 2 µM)
How it was run: as §1

Cell Line	relative viability ([1]; first compound 0.253 µM)	relative viability ([1]; first compound 0.8 µM)	relative viability ([1]; first compound 2.53 µM)	relative viability ([1]; first compound 8 µM)	relative viability ([2]; first compound 0.253 µM)	relative viability ([2]; first compound 0.8 µM)	relative viability ([2]; first compound 2.53 µM)	relative viability ([2]; first compound 8 µM)	relative viability ([3]; first compound 0.253 µM)	relative viability ([3]; first compound 0.8 µM)	relative viability ([3]; first compound 2.53 µM)	relative viability ([3]; first compound 8 µM)	relative viability ([4]; first compound 0.253 µM)	relative viability ([4]; first compound 0.8 µM)	relative viability ([4]; first compound 2.53 µM)	relative viability ([4]; first compound 8 µM)	relative viability ([5]; first compound 0.253 µM)	relative viability ([5]; first compound 0.8 µM)	relative viability ([5]; first compound 2.53 µM)	relative viability ([5]; first compound 8 µM)
201T	0.653	0.682	0.621	0.699	0.704	0.705	0.697	0.692	1.03	1.01	1.07	1	0.357	0.396	0.356	0.34	1.1	0.969	1.01	0.999
A549	0.493	0.686	0.555	0.456	–	–	–	–	–	–	–	–	–	–	–	–	0.952	1.11	0.995	0.938
A-427	0.74	0.66	0.679	0.588	0.713	0.717	0.76	0.685	0.932	0.96	0.908	0.895	0.52	0.568	0.547	0.491	1.03	1	0.989	0.976
ABC-1	0.755	0.786	0.782	0.66	–	–	–	–	–	0.696	0.803	0.509	0.681	0.807	0.794	0.735	1.27	1.2	1.37	0.845
BEN	0.497	0.456	0.69	0.542	0.995	1.14	1.03	0.936	0.346	0.188	0.377	0.379	0.495	0.445	0.512	0.485	0.782	0.72	0.718	0.696
CAL-12T	0.338	0.616	0.398	0.377	0.361	0.411	0.31	0.295	0.393	0.533	0.592	0.767	0.443	0.517	0.573	0.398	0.728	0.592	0.665	0.527
COR-L23	0.876	0.848	0.828	0.674	0.619	0.557	0.703	0.549	0.74	0.754	0.712	0.512	0.323	0.245	0.308	0.237	0.921	0.918	0.998	0.887
COR-L 105	0.371	0.374	0.432	0.382	0.407	0.405	0.473	0.428	0.758	0.723	0.651	0.656	0.439	0.408	0.41	0.397	0.339	0.281	0.353	0.343
ChaGo-K-1	0.524	0.891	0.666	0.649	0.91	0.905	0.832	0.885	0.649	0.658	0.576	0.557	0.942	0.939	0.994	0.968	–	–	–	–
EKVX	0.43	0.449	0.418	0.402	0.298	0.344	0.297	0.313	0.972	0.884	0.908	0.848	0.384	0.36	0.386	0.452	0.203	0.18	0.207	0.198
EMC-BAC-2	0.532	0.453	0.555	0.359	0.789	0.918	0.879	0.849	1.2	1.23	1.09	1.06	0.507	0.519	0.507	0.489	0.879	0.76	0.852	0.813
EPLC-272H	0.337	0.329	0.293	0.298	0.293	0.268	0.296	0.275	0.267	0.23	0.377	0.345	0.325	0.376	0.318	0.334	1.3	0.851	1.04	0.716
H3255	0.427	0.483	0.467	0.48	0.515	0.643	0.57	0.589	0.875	0.9	0.847	0.857	0.302	0.32	0.347	0.307	0.245	0.235	0.227	0.255
HARA	0.299	0.573	0.573	0.407	0.673	0.834	0.818	0.652	0.616	0.576	0.675	0.55	0.303	0.249	0.281	0.232	0.932	0.737	0.711	0.654
HCC-15	0.714	0.773	0.735	0.719	0.414	0.458	0.391	0.395	0.529	0.247	0.266	0.225	0.804	0.773	0.733	0.724	0.965	0.951	0.893	0.829
HCC-44	0.52	0.499	0.49	0.506	1.05	1.13	1.09	1.04	1.04	0.812	1.1	0.942	0.954	1.03	0.902	0.882	1.02	1.04	0.973	0.988
HCC-78	0.202	0.205	0.192	0.196	0.717	0.644	0.793	0.77	–	–	–	–	0.486	0.498	0.471	0.462	0.97	0.645	0.768	0.664
